Reference: patent publication US6369109B1, “Betulinic acid and derivatives thereof useful for the treatment of neuroectodermal tumor” (Deutsches Krebsforschungszentrum Stiftung des Offentlichen …, priority 1998, dated 2002)
Entries after “also recorded” stand apart in the source; their conditions may differ.

Key:
Format in all cases: cell-based, human
[1] = system: p53 protein in SH-EP neuroblastoma cells; assay: Western blot of p53 accumulation; conditions: 10 μg/ml betulinic acid; 0.5 μg/ml doxorubicin 12 h; FIG. 5D
Procedure: Cells were lysed for 30 min at 4° C. in PBS with 0.5% Triton X (Serva, Heidelberg, Germany) and 1 mM phenylmethylsulfonyl fluoride (Sigma, Deisenhofen, Germany) followed by high-speed centrifugation. Membrane proteins were eluted in buffer containing 0.1 M glycine. PH 3.0 and 1.5 M Tris, pH 8.8. Protein concentration was assayed using bicinchoninic acid (Pierce Chemical Co., Rockford, Ill.). Forty μg of protein per lane were separated by 12% SDS-PAGE and electroblotted onto nitrocellulose (Amersham, Braunschweig, Germany). Equal protein loading was controlled by Ponceau red staining of membranes. After blocking for 1 h in PBS supplemented with 2% BSA (Sigma) and 0.1% Tween 20 (Sigma), immunodetection of FLICE, CPP32, PARP, Bax, Bcl-x, Bcl-2, and p53 protein was done using mouse anti-FLICE monoclonal antibody C15 (1:5 dilution of hybridoma supernatant), mouse anti-CPP32 monoclonal antibody (1:1000, Transduction Laboratories, Lexington, KY), rabbit anti-PARP polyclonal antibody (1:10000, Enzyme Systems Products), rabbit anti-Bax polyclonal antibody (1:500, Calbiochem, Bad Soden, Germany), rabbit anti-Bcl-x polyclonal antibody (1:1000, Santa Cruz Biotechnology, Santa Cruz, Calif.), mouse anti-p53 monoclonal antibody (1:10000, Transduction Laboratories), and goat anti-mouse 1gG or goat antirabbit IgG (1:5000, Santa Cruz Biotechnology), ECL (Amersham) was used for detection. […]

[2] = system: doxorubicin-resistant SH-EP^DoxoR cells; assay: Specific apoptosis in resistant cells, FACS of propidium iodide-stained nuclei; conditions: 10 μg/ml betulinic acid or 0.5 μg/ml doxorubicin, 72 h; FIG. 6A
Excerpt: (§1) Neuroblastoma (SH-EP, IMR-32, Kelly, and LAN-5, kindly provided by Professor M. Schwab, German Cancer Research Center, Heidelberg, Germany), medulloblastoma cells (Daoy, kindly provided by Dr. T. Pietsch, Department of Neuropathology, University of Bonn Medical Center, Bonn, Germany), Ewing's sarcoma cells (A17/95, kindly provided by Dr. U. Anderer, Institute of Pathology, Humboldt University, Berlin, Germany), melanoma (A-378), breast carcinoma (MCF-71), colon carcinoma (HT-29), small cell lung carcinoma (H-126), renal cell carcinoma (KTCTL-26, kindly provided by H. Lörke, German Cancer Research Center, Heidelberg, Germany) and T-cell leukemia (CEM) cells were cultured in RPMI 1640 (Life Technologies, Inc., Eggenstein, Germany) supplemented with 10% heat-inactivated fetal bovin serum (FCS) from Conco. […]
(§2) Quantification of DNA fragmentation was performed by FACS analysis of propidium iodide stained nuclei as described in Nicoletti et al, 1991, J. Immunol. […] Cells were analyzed for DNA content by flow. cytometry (FACScan, Becton Dickinson, Heidelberg, Germany) using CELLQuest software. […] Cells were analyzed by flow cytometry (FAC-Scan. Becton Dickinson) using CELLQuest software.
(§3) SH-EP neuroblastoma cells (▪). […] Specific apoptosis was determined and calculated as described in the legend to FIG. 1A. […]

[3] = system: CD95-resistant SH-EP^CD95R cells; assay: as above; conditions: 10 μg/ml betulinic acid or 0.5 μg/ml doxorubicin, 72 h; FIG. 6A
Excerpt: as §1, §2, §3

COc1cccc2c1C(=O)c1c(O)c3c(c(O)c1C2=O)C[C@@](O)(C(=O)CO)C[C@@H]3O[C@H]1C[C@H](N)[C@H](O)[C@H](C)O1 [doxorubicin]
accumulation of p53 protein [1]: induces the accumulation of p53 protein; also recorded: strongly increased
response of doxorubicin-resistant cells (specific apoptosis) [2]: partially resistant to doxorubicin
response of anti-CD95-resistant cells (specific apoptosis) [3]: partially resistant to doxorubicin
